In one assay the target is MetRS (T. brucei) (Trypanosoma brucei brucei, UniProt Q38C91). The experiment in a line: MetRS (T. brucei) ATP depletion assay using Kinase-Glo. Type of assay: biochemical. On the technique in general: Kinase-Glo reads ATP consumption through a luciferase reaction.
For a further assay, the system named is T. brucei. Description: Growth inhibition assay of T. brucei cell cultures (Alamar Blue, 48 h). Type of assay: cell-based. In general terms: Alamar Blue is a resazurin reagent that responds to reducing activity.
A further assay relates to T. cruzi. The experiment in a line: T. cruzi growth inhibition EC50. Type of assay: cell-based. The following applies: Trypanosoma cruzi; read-out: C) T. cruzi EC50.
A further assay relates to L. amaz. The experiment in a line: L. amaz growth inhibition EC50. Type of assay: cell-based. The following applies: read-out: F) L. amaz EC50.
The target in a further assay is MetRS (S. aureus) (Staphylococcus aureus, UniProt Q5HII6). Description: biochemical. Particulars: ATP depletion, Kinase-Glo; read-out: H) MetRS (S. aureus) ATP depletion assay using Kinase-Glo with modified cpd dilution method, IC50.
For another assay, the system named is S. aureus (ATCC 29213). Description: S. aureus (ATCC 29213) MIC/EC50. Type of assay: cell-based. Particulars: Staphylococcus aureus, ATCC29213; S. aureus ATCC 29213; read-out: I) S. aureus (ATCC 29213) MIC/EC50, MIC.
The subject of assay [1] is S. aureus MRSA (ATCC 43300). Description: S. aureus MRSA (ATCC 43300) MIC/EC50. Type of assay: cell-based. The following applies: Staphylococcus aureus; S. aureus MRSA ATCC 43300; read-out: J) S. aureus MRSA (ATCC 43300) MIC/EC50, MIC.
[2] abbreviates: Trypanosoma brucei; read-out: B) T. brucei EC50.

Molecules are shown by their SMILES. pEC50, pIC50: −log10 of the molar value. Where two headings read alike, the source gives them in different places.

Sequence of MetRS (T. brucei) (Q38C91 entry or part of it): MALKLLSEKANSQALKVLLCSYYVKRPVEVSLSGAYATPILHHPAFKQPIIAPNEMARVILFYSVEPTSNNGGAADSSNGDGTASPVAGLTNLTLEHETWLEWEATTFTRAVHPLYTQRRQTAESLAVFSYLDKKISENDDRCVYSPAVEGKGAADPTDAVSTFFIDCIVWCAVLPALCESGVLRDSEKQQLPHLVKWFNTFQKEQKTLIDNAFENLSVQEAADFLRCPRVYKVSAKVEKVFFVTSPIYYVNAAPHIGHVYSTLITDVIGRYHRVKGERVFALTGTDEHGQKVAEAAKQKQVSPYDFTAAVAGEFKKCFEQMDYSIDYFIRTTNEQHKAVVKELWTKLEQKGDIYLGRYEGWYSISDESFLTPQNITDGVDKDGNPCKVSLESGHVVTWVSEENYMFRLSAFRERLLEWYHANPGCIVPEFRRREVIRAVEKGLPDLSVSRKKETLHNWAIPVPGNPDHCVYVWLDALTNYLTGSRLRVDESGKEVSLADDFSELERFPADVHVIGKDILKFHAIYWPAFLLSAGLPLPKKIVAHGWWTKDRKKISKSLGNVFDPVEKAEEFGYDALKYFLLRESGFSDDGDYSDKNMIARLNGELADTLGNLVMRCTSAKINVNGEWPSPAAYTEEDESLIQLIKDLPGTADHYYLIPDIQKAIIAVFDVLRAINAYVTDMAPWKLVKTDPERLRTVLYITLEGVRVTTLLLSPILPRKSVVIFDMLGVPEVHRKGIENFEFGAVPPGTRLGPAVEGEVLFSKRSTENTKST
Sequence of MetRS (S. aureus) (Q5HII6 whole entry): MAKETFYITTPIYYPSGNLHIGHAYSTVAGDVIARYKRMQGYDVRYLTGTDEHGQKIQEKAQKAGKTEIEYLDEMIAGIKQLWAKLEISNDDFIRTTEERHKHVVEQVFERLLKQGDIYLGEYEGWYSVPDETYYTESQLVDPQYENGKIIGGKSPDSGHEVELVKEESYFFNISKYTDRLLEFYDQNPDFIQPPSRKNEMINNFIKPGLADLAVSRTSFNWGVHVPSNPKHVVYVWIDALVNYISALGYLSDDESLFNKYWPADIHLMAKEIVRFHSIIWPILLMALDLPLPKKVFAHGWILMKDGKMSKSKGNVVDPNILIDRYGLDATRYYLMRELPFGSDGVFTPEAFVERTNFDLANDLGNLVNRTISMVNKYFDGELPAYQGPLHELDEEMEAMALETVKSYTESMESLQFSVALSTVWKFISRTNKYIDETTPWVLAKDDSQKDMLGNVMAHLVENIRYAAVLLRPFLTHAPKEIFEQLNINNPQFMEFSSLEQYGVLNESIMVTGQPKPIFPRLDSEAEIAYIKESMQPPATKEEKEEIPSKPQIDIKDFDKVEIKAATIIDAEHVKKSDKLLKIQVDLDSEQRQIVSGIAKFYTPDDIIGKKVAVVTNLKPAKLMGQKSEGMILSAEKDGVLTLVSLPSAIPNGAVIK

Take `O=C(NCc1nc2ccc(F)nc2[nH]1)OCCc1ccc(Cl)cc1Cl` [Compound 1707, 2-(2,4-dichlorophenyl)ethyl N-({5-fluoro-3H-imidazo[4,5-b]pyridin-2-yl}methyl)carbamate]: the figures for the negative logarithm of the IC50 (pIC50) against MetRS (T. brucei) and at MetRS (S. aureus) were 7.59 and 7.43, respectively. Besides, the pEC50 in the assay with T. brucei (setting [2]) was 5.79; with T. cruzi it was under 5.00; with L. amaz, under 6.00.
Consider `FC(F)(CNCc1cc(Cl)cc(Cl)c1)CNc1nc2cccnc2[nH]1` [Compound 1708, [(3,5-dichlorophenyl)methyl][2,2-difluoro-3-({3H-imidazo[4,5-b]pyridin-2-yl}amino)propyl]amme], for which the pIC50 is 7.96 on MetRS (T. brucei) and 7.06 on MetRS (S. aureus). Besides, the negative-log EC50 (pEC50) in the assay on T. brucei (setting [2]) was 5.81; with T. brucei (read-out: B) T. brucei EC50), 6.05; in the assay with T. cruzi it was under 5.30; with L. amaz it was under 6.00.
As to `O=C(Cc1cc(Cl)cc(Cl)c1)N1CCC[C@H](c2nc3cc(Cl)ccc3[nH]2)C1` [Compound 1758, (S)-1-(3-(5-chloro-1H-benzo[d]imidazol-2-yl)piperidin-1-yl)-2-(3,5-dichlorophenyl)ethanone], the negative logarithm of the IC50 (pIC50) against MetRS (T. brucei) was 7.51; at MetRS (S. aureus), 5.98. Moreover, in the assay with T. brucei (setting [2]), the pEC50 is 5.33. For the same compound, the MIC (in the assay with S. aureus (ATCC 29213); in assay [1]) was over 10 µg/mL each time.
Turning to `O=C(Cc1cc(Cl)cc(Cl)c1)N1CCCC(c2nc3nc(Cl)ccc3[nH]2)C1` (stereo not drawn) [Compound 1762, 1-(3-(5-chloro-1H-imidazo[4,5-b]pyridin-2-yl)piperidin-1-yl)-2-(3,5-dichlorophenyl)ethanone], the pIC50 on MetRS (T. brucei) was 7.55; at MetRS (S. aureus), 5.54. Further, the pEC50 in the assay with T. brucei (setting [2]) was 5.98. Further, the MIC (in the assay on S. aureus (ATCC 29213); in assay [1]) was over 10 µg/mL in each case.
Consider `COc1ccc(Oc2cc(NCc3nc4ccc(F)nc4[nH]3)nc(Cl)n2)c(Cl)c1` [Compound 1796, 6-(2-chloro-4-methoxyphenoxy)-2-chloro-N-((5-fluoro-3H-imidazo[4,5-b]pyridin-2-yl)methyl)pyrimidin-4-amine], for which the pIC50 was 7.77 at MetRS (T. brucei) and 7.26 at MetRS (S. aureus). For the same compound, the figures for the pEC50 with T. cruzi and in the assay on L. amaz were 6.28 and under 6.00, respectively.
On to `COc1ccc(Oc2cc(NCc3nc4ccc(F)nc4[nH]3)nc(N3CCN(c4cnccn4)CC3)n2)c(Cl)c1` [Compound 1797, 6-(2-chloro-4-methoxyphenoxy)-N-((5-fluoro-3H-imidazo[4,5-b]pyridin-2-yl)methyl)-2-(4-(pyrazin-2-yl)piperazin-1-yl)pyrimidin-4-amine], for which the pIC50 against MetRS (T. brucei) was 7.64; at MetRS (S. aureus) it was 8.70. Moreover, the pEC50 in the assay on T. cruzi was 6.36; in the assay on L. amaz, under 6.00.
As to `Clc1cc(Cl)cc(CN[C@H]2CCCN(c3nc4nc(Cl)ccc4[nH]3)C2)c1` [Compound 1856, (S)-1-(5-chloro-1H-imidazo[4,5-b]pyridin-2-yl)-N-(3,5-dichlorobenzyl) piperidin-3-amine], the pIC50 at MetRS (T. brucei) was 7.72; on MetRS (S. aureus), 6.44. In addition, the values for the pEC50 with T. brucei (setting [2]), in the assay with T. cruzi and in the assay with L. amaz were 7.41, 5.83 and 5.36, respectively.
`CN(CCNCc1cc(Cl)cc(Cl)c1)c1nc2ccc(Cl)nc2[nH]1` [Compound 1893, N-(2-(3,5-dichlorobenzylamino)ethyl)-5-chloro-N-methyl-1H-imidazo[4,5-b]pyridin-2-amine]: the values for the pIC50 at MetRS (T. brucei) and on MetRS (S. aureus) were 8.10 and 6.53, respectively. The negative-log EC50 (pEC50) with T. brucei (setting [2]) was 7.83; with T. brucei (read-out: B) T. brucei EC50), 7.55; in the assay with T. cruzi, 6.47; in the assay on L. amaz it was 5.42.
Regarding `O=c1[nH]c(Cc2ccc(Cl)cc2Cl)cn1Cc1nc2ccccc2[nH]1` [Compound 1907, 3-((1H-benzo[d]imidazol-2-yl)methyl)-5-(2,4-dichlorobenzyl)-1H-imidazol-2(3H)-one], the pIC50 against MetRS (T. brucei) was 7.72; on MetRS (S. aureus), 7.27. Besides, the results for the pEC50 in the assay with T. brucei (setting [2]), in the assay on T. cruzi and in the assay on L. amaz were 6.46, 5.12 and under 6.00, respectively.
In turn, `COc1c(Cl)cc(Cl)cc1CN[C@H]1CCCN(c2nc3nc(Cl)ccc3[nH]2)C1` [Compound 1911, (S)-1-(5-chloro-1H-imidazo[4,5-b]pyridin-2-yl)-N-(3,5-dichloro-2-methoxybenzyl)piperidin-3-amine] gave a pIC50 against MetRS (T. brucei) of 7.68. For the same compound, the pEC50 in the assay with T. brucei (setting [2]) is 6.45; in the assay with L. amaz, 5.29.
On to `Clc1cc(Br)cc(CN[C@H]2CCCN(c3nc4nc(Cl)ccc4[nH]3)C2)c1` [Compound 1912, (S)—N-(3-bromo-5-chlorobenzyl)-1-(5-chloro-1H-imidazo[4,5-b]pyridin-2-yl)piperidin-3-amine], for which the pIC50 at MetRS (T. brucei) was 8.10. For the same compound, the pEC50 in the assay on T. brucei (setting [2]) is 7.15; with T. cruzi it was 5.65; with L. amaz, 5.11.
`CN(CCNCc1cc(Cl)cc(Cl)c1)c1nc2nc(F)ccc2[nH]1` [Compound 1913, N-(2-{[(3,5-dichlorophenyl)methyl]amino}ethyl)-5-fluoro-N-methyl-1H-imidazo[4,5-b]pyridin-2-amine]: the pIC50 on MetRS (T. brucei) is 7.59; on MetRS (S. aureus), 6.16. Besides, the results for the pEC50 with T. brucei (setting [2]) and in the assay with L. amaz were 6.95 and under 6.00, respectively.
`Clc1cc(Cl)cc(CNCC2CCCN2c2nc3nc(Cl)ccc3[nH]2)c1` (stereo not drawn) [Compound 1916, 1-(1-(5-chloro-1H-imidazo[4,5-b]pyridin-2-yl)pyrrolidin-2-yl)-N-(3,5-dichlorobenzyl)methanamine]: the pIC50 on MetRS (T. brucei) is 7.24. Moreover, the pEC50 was 6.32 in the assay with T. brucei (setting [2]) and 5.02 with L. amaz.
Take `CN(CCN[C@@H]1CCNc2c(Cl)cc(Cl)cc21)c1nc2nc(Cl)ccc2[nH]1` [Compound 1917, 5-chloro-N-(2-{[(4R)-6,8-dichloro-1,2,3,4-tetrahydroquinolin-4-yl]amino}ethyl)-N-methyl-3H-imidazo[4,5-b]pyridin-2-amine]: the pIC50 on MetRS (T. brucei) was 7.68; on MetRS (S. aureus), 6.86. Further, the pEC50 is 7.81 in the assay on T. cruzi and 6.18 in the assay with L. amaz.
For `CN(CCN[C@@H]1CCNc2c(Cl)cc(Cl)cc21)c1nc2nc(F)ccc2[nH]1` [Compound 1919, (R)—N1-(6,8-dichloro-1,2,3,4-tetrahydroquinolin-4-yl)-N2-(5-fluoro-1H-imidazo[4,5-b]pyridin-2-yl)-N2-methylethane-1,2-diamine], the pIC50 against MetRS (T. brucei) is 7.82; on MetRS (S. aureus) it was 6.48. The negative-log EC50 (pEC50) was 8.20 with T. brucei (setting [2]), 8.02 in the assay on T. brucei (read-out: B) T. brucei EC50), 7.05 in the assay on T. cruzi and 5.79 in the assay with L. amaz.
As for `COc1ccc(Oc2ccnc(NCc3nc4ccccc4[nH]3)c2)c(Cl)c1` [Compound 1933, N-((1H-benzo[d]imidazol-2-yl)methyl)-4-(2-chloro-4-methoxyphenoxy)pyridin-2-amine], the results for the pIC50 against MetRS (T. brucei) and at MetRS (S. aureus) were 7.66 and 7.40, respectively. Besides, the pEC50 in the assay on T. brucei (setting [2]) is 6.99; in the assay with T. cruzi, 5.77.
With `CCN(CCNCc1cc(Cl)cc(Cl)c1)c1nc2nc(Cl)ccc2[nH]1` [Compound 1949, 5-chloro-N-(2-{[(3,5-dichlorophenyl)methyl]amino}ethyl)-N-ethyl-3H-imidazo[4,5-b]pyridin-2-amine], the figures for the pIC50 against MetRS (T. brucei) and on MetRS (S. aureus) were 7.74 and 6.22, respectively. Further, the pEC50 is 7.10 in the assay on T. brucei (setting [2]), 7.07 with T. brucei (read-out: B) T. brucei EC50) and 5.88 in the assay with T. cruzi.

As a reminder, the pIC50 is the negative decadic logarithm of the IC50, by convention in mol/L. What is called pEC50 is the negative decadic logarithm of the EC50, by convention in mol/L.

(Values after US10913736B2 (UNIVERSITY OF WASHINGTON, priority 2014, dated 2021).)
